Results reported in patent US20110124614A1, “Methods And Compositions For The Treatment of Autoimmune Disorders” (priority 2008, published 2011).
Marks after values point to notes of the source that are not given here.

Assays:
Format in all cases: in vivo, mouse
EAE in wild-type B6 mice [1] = test: EAE clinical scoring, G-1 vs E2 pellets at different doses, wild-type B6 mice (Example III); conditions: for CDI / Daily / Mortality / Onset / Peak / Incidence: 34 days
EAE in wild-type B6 mice [2] = test: EAE clinical scoring, daily s.c. injection of G-1 or E2, wild-type B6 mice
EAE in PD-1KO mice = test: EAE clinical scoring, G-1 or E2 pellets, PD-1KO mice (Example IX)
[3] = test system: CNS infiltration, demyelination and axonal damage in spinal cord of WT EAE mice; test: Spinal cord histology (H&E, LFB-PAS, SMI312, SMI32), WT EAE mice
Description: Spinal cords were dissected out for histology. Intact spinal columns were removed and dissected after fixation in 4% paraformaldehyde, dehydrated and embedding in paraffin. To examine neuroinflammation, the sections were stained with hematoxylin and eosin (H&E). To examine demyelination, the sections were stained with Luxon fast blue plus periodic acid Schiff (LFB-PAS). The mice from the clinical experiment shown in FIG. 2A were euthanized at the end of the experiment and spinal cords were dissected out for histology. Intact spinal cords were removed and dissected after fixation in 4% paraformaldehyde, dehydrated and embedding in paraffin. To examine neuroinflammation, the sections were stained with hematoxylin and eosin (H&E). To examine demyelination, the sections were stained with Luxon fast blue plus periodic acid Schiff (LFB-PAS). To visualize axonal damage, spinal cords were fixed in 4% paraformaldehyde (maass/volume in PBS, pH 7.4) at 4° C. for at least 48 h. The spinal cords were dissected out from the columns, cut into sections 1-2 mm in length from the sampled thoracic or […] cords, dehydrated and embedded in paraffin blocks. Then, 10 μm thick sections were cut from paraffin blocks and mounted onto pre-cleaned microscope slides. The sections were dewaxed and rehydrated sequentially by xylene (2 min), gradient ethanol (100%, 95%, 85%, 2 min each) and PBS (5 min) and then cooked (120° C.) in antigen unmasking agent Trilogy® (Cell Marque, Hot Springs, Ark.) for 10 min in a pressure steamer. […] The slides were counterstained with hematoxylin for 30-60 s to visualize nuclei, washed with tap water, dehydrated, and mounted with Cytoseal™ XYL mounting medium (Richard-Allan Scientific, Kalamazoo, Mich.). The sections were analyzed by light microscopy after staining and recorded with a digital camera.

[4] = test system: splenocytes and lymph node cells of WT EAE mice; test: Ex vivo T cell proliferation to mMOG-35-55, WT mice
Procedure: (§1) Splenocytes and lymph node cells were harvested ex-vivo from G-1 and E2 implanted mice and cultured in a 96-well flat bottom tissue culture plate at 4×10^5 cells/well in stimulation medium in the presence of APC, irradiated (2500 rad) syngenic thymocytes at a ration of 1:10 (T:APCs) wither with or without mMog 35-55 peptide at varying concentrations. The cells were incubated for 3 days at 37° C. in 7% CO2 and pulsed with 0.5 μCi of [^3H] thymidine (Perkin-Elmer, Boston, Mass.) for the final 18 h of incubation. The cells were harvested onto glass fiber filters, and incorporated radioactivity was measured by a liquid scintillation counter. The cpm values (mean±SD) were calculated from triplicate wells. Stimulation index (SI) was calculated by dividing the experimental cpm by the control cpm.

[5] = test system: T cells of GPR30KO EAE mice; test: Ex vivo T cell proliferation to mMOG-35-55, GPR30KO mice
Procedure: as §1

[6] = test system: PD-1 expression in CD4^+FoxP3^+ T cells; test: PD-1 expression in CD4+FoxP3+ Treg cells by flow cytometry, WT mice (Example VI); conditions: FIG. 5B
Procedure: Splenocytes or lymph node cells were harvested from placebo-, E2- or G-1 treated mice after EAE induction as shown in FIG. 2A and stained for CD4, FoxP3 and PD-1. The expression levels of Pd-1 were analyzed by gating on CD4^+FoxP3^+ cells from placebo-, E2, or G-1 treated WT mice. For membrane staining, 1 million cells were stained at 4° C. in the dark with appropriate Ab dilutions in staining buffer (PBS containing 0.5% BSA and 0.02% sodium azide), Intracellular staining for FoxP3 was performed following the protocol recommended by eBioscience. Briefly, 4 million cells were surface stained following standard procedures. After washing, the cells were fixed overnight and washed twice with 0.5 ml of permeabilization buffer. The cells were co-stained for 15 min with FcBlock (Becton Dickinson, Franklin Lake., NJ) and IgG PerCp (eBioscience, San Diego, Calif.) followed 30 min later with fluorescent-labeled antibodies to FoxP3 (eBioscience, San Diego, Calif.) or isotype control. The cells were then washed twice with 2 ml of permeabilization buffer and once with 1 ml of staining buffer, and re-suspended in staining buffer. Flow cytometry data were collected on LSRII and FACSCalibur flow cytometers (BD Bioscience, Franklin Lakes, N.J.), and analyzed using FlowJo software (Tree Star, Ashland, Oreg.). Data represent 50,000-100,000 events unless otherwise noted. […] The histogram overlay compares the MFI of PD-1 in CD4^+FoxP3^+ T cells from different treatment groups. The bar charts show the average percentages of PD-1^+ CD4^+FoxP3^+ T cells and the average MFI of PD-1 in CD4^+FoxP3^+ T cells from all mice in each grip[/*P<0.05 or **P<0.01 compared to placebo control.

[7] = test system: PD-L1 and PD-L2 expression; test: PD-L1 and PD-L2 expression on APCs and T cells by flow cytometry (Example VIII); conditions: treated WT EAE mice, FIG. 5C
[8] = E2 injection, 1 μg/mouse/day s.c., 20 days
[9] = PD-1KO, 2.5 mg/60 day E2 pellet, 20 days

## C[C@]12CC[C@@H]3c4ccc(O)cc4CC[C@H]3[C@@H]1CC[C@@H]2O [E2, 17β estradiol]
EAE in wild-type B6 mice [1]; 0.025 mg E2 pellet
  CDI: 37.0 ± 21.6
  Daily: 1.7 ± 1.0
  Mortality: 0/5
  Onset: 14.8 ± 0.5
  Peak: 2.8 ± 1.6
EAE in wild-type B6 mice [1]; 0.025 mg/60 day release E2 pellet
  Incidence: 4/5
EAE in wild-type B6 mice [1]; 0.1 mg E2 pellet
  CDI: 9.1 ± 14.8
  Daily: 0.3 ± 0.6
  Mortality: 0/10
  Onset: 21.0 ± 6.1
  Peak: 0.8 ± 1.2
EAE in wild-type B6 mice [1]; 0.1 mg/60 day release E2 pellet
  Incidence: 3/10**
EAE in wild-type B6 mice [1]; 2.5 mg E2 pellet
  CDI: 0**
  Daily: 0**
  Mortality: 0/7
  Peak: 0**
EAE in wild-type B6 mice [1]; 2.5 mg/60 day release E2 pellet
  Incidence: 0/7**
EAE in wild-type B6 mice [1]; 2.5 mg/60 day release E2 pellets
  protection from clinical EAE (in words): completely protected
EAE in wild-type B6 mice [2]; E2 1 μg/mouse/day s.c. injections
  protection against EAE (in words): partially protective
EAE in wild-type B6 mice [2]; [8]
  CDI: 10.5 ± 13.9
  Daily: 2.3 ± 0.3
  Incidence: 3/8*
  Mortality: 1/8
  Onset: 15.3 ± 1.5
  Peak: 2.3 ± 2.9
EAE in PD-1KO mice; E2 2.5 mg/60 day pellet, PD-1KO mice
  protection against clinical EAE (in words): retained partial efficacy
EAE in PD-1KO mice; [9]
  CDI: 16.4 ± 6.3
  Daily: 1.5 ± 0.6
  Mortality: 0/5
  Onset: 16.4 ± 0.9
  Peak: 4.1 ± 0.8
EAE in PD-1KO mice; PD-1KO, 2.5 mg/60 day release E2 pellet, 20 days
  Incidence: 5/5
[3]; E2-treated WT mice, Example II, FIG. 1B
  pathological signs of EAE in CNS (immune cell infiltration and demyelination): no pathological signs of EAE
[3]; WT mice of FIG. 2A experiment, FIG. 4 upper panels
  immune cell infiltration and demyelination in the CNS (H&E, LFB-PAS): markedly ameliorated
[3]; WT mice, FIG. 4 lower left panel
  axons in the spinal cords (SMI312 staining): well preserved
[3]; WT mice, FIG. 4 lower panels
  axonal damage in spinal cord sections: reduced the level of axonal damage
[3]; WT mice, FIG. 4 lower right panel
  SMI32 staining in white matter of spinal cords (ongoing axonal damage): much less SMI32 staining
[4]; E2 treatment, WT mice, FIG. 1C
  T-cell responses to MOG peptide: similarly reduced
[4]; G-1 and E2 implanted WT mice, FIG. 2C
  ex vivo T cell proliferation responses to mMog-35-55 peptide: neither G-1 nor E2 treatment significantly altered
[5]; E2 treatment, FIG. 1C
  T-cell responses to MOG peptide: similarly reduced
[5]; Example IV
  T cell proliferation to mMog-35-55: Neither G-1 nor E2 affected
[6]; spleen of treated WT mice
  staining intensity of PD-1 in CD4^+FoxP3^+ cells: strongly enhanced
[6]; treated WT mice
  conversion of CD4^+FoxP3^+PD-1^− cells to PD-1^+ cells: converted a majority
[7]
  PD-L1 expression on B cells and macrophages: upregulated
  expression of PD-L2: essentially no effect
